{"source": "patent US20060252798A1", "about": "“Metal ion chelators and therapeutic use thereof” (priority 2003, published 2006)", "key": {"[1]": {"system": "SK-N-MC neuroepithelioma cells", "experiment": "59Fe mobilization from prelabelled SK-N-MC neuroepithelioma cells", "type": "cell-based, human", "details": "chelators 25 μM, 3 h at 37° C.; media alone released 5% (FIG. 11A)", "method": "The effect of chelators on ^59Fe release from prelabelled cells was studied using standard procedures.^18 Cells were prelabelled with ^59Fe-transferrin (0.75 μM) for 3 h at 37° C. […] The overlying medium was then removed and placed into γ-counting tubes. The cells were removed from the petri dishes in 1 ml of BSS using a plastic spatula and transferred to a separate set of γ-counting tubes.\nThe ability of the compounds to mobilise ^59Fe from SK-N-MC neuroepithelioma cells was assessed after a 3 h labelling period with ^59Fe-Tf (0.75 μM) at 37° C. […]\nDFO and 311 were used as internal standards."}, "[2]": {"system": "M109 carcinoma cells", "experiment": "59Fe mobilisation from prelabelled M109 cells", "type": "cell-based, mouse", "details": "3 h, control medium 8±1%", "method": "(§1) The ability of the compound Dp44mT to inhibit the growth of M109 lung carcinoma cells in mice was assessed. Studies were performed using M109 carcinoma cells in culture to determine the effect of Dp44mT on mobilising ^59Fe from these cells (FIG. 11C) and inhibiting ^59Fe uptake from ^59Fe-Tf (FIG. 11D). As internal controls, cells were incubated with DFO and 311. The effect of compound concentration on increasing ^59Fe mobilisation from M109 cells was examined by labelling cells with ^59Fe-Tf (0.75 μM) for 3 h at 37° C. followed by washing and reincubation with the respective compounds (0.2-25 μM) for 3 h at 37° C. (FIG. 11C). […] In contrast, 311 increased cellular ^59Fe release from 8±1% (control medium) to […] at 5 μM (FIG. 11C). For Dp44mT ^59Fe release plateaued at 2 μM, resulting in the efflux of 48±2% of ^59Fe (FIG. 11C)."}, "[3]": {"system": "M109 carcinoma cells", "experiment": "59Fe uptake from 59Fe-Tf by M109 cells", "type": "cell-based, mouse", "method": "as §1\nAt 1 μM, 311 reduced ^59Fe uptake to 40±4% of the control. […] Dp44mT had similar activity to 311 up to a concentration of 5 μM, where it reduced ^59Fe uptake to 30±1% of the control (FIG. 11D)."}, "[4]": {"system": "SK-N-MC neuroepithelioma cells", "experiment": "MTT cellular proliferation assay, SK-N-MC", "type": "cell-based, human"}, "[5]": {"system": "MRC-5 fibroblasts", "experiment": "MTT cellular proliferation assay, MRC-5 fibroblasts", "type": "cell-based, human", "details": "Table 3, normal cells, 72 h, MTT, read-out: IC50 MRC-5 fibroblasts", "method": "(§2) The final concentration of the compounds was 0.39-50 μM. […] […] After this incubation, 0.01 mL of MTT was added to each well and the plates incubated for 2 h at 37° C. The cells were then solubilised by adding 0.1 mL of 10% SDS-50% isobutanol in 0.01 M HCl and the plates then read at 570 nm on a scanning multiwell spectrophotometer (Titertek Multiscan; Beckman Instruments Inc, California). MTT colour formation was directly proportional to the number of viable cells.\nThe MRC-5 cell type is a normal human lung fibroblast cell strain that is mortal and senesces after a number of passages in vitro. The SK-N-MC neuroepithelioma cell type is immortal.\nDp2mT served as a negative control."}, "[6]": {"system": "SK-Mel-28 melanoma cells", "experiment": "MTT cellular proliferation assay, SK-Mel-28", "type": "cell-based, human"}, "[7]": {"system": "MCF-7 breast cancer cells", "experiment": "MTT cellular proliferation assay, MCF-7", "type": "cell-based, human"}, "[8]": {"system": "H69AR lung cancer", "experiment": "MTT cellular proliferation assay, H69AR", "type": "cell-based", "details": "0-50 μM, 72 h, 1 experiment", "method": "as §2\n(§3) At the end of the incubation period, cell density was determined by the MTT assay (described above)."}, "[9]": {"system": "IMR-32 Neuroblastoma", "experiment": "MTT cellular proliferation assay, IMR-32", "type": "cell-based", "details": "72 h, 1 experiment", "method": "as §2, §3"}, "[10]": {"system": "HEP G2 Hepatoma", "experiment": "MTT cellular proliferation assay, HEP G2", "type": "cell-based", "details": "72 h, 1 experiment", "method": "as §2, §3"}, "[11]": {"system": "DU 145 prostate cancer", "experiment": "MTT cellular proliferation assay, DU 145", "type": "cell-based", "details": "72 h, 2 experiments", "method": "as §2, §3"}, "[12]": {"system": "NCI H2452 mesothelioma", "experiment": "MTT cellular proliferation assay, NCI H2452", "type": "cell-based", "details": "72 h, 3 experiments", "method": "as §2, §3"}, "[13]": {"system": "Ndrg1", "experiment": "Ndrg1 expression in MCF-7 cells (Western blotting)", "type": "cell-based, human", "details": "25 μM, 24 h, MCF-7 cells (FIG. 16)", "method": "FIG. 16. […] The expression of Ndrg1 and β-actin protein levels were assessed by Western blotting.\nMCF-7 cells were incubated for 24 h with a range of metal ion chelators. […] Dp2mT was used as a negative control, […]"}, "[14]": {"system": "Bcl-2", "experiment": "Mitochondrial Bcl-2 protein level in M109 cells", "type": "cell-based, mouse", "details": "1 μM", "method": "Considering the roles of Bcl-2 and Bax in the mitochondrial pathway of apoptosis and their role in h-cytc release, ^8,11,12 the effect of Dp44mT (1 μM) on the protein levels of these molecules was assessed (FIG. 15B)."}}, "note": "Read-outs that look alike come from different tables or passages of the source."}
{"compound": "CC(=O)N(O)CCCCCNC(=O)CCC(=O)N(O)CCCCCNC(=O)CCC(=O)N(O)CCCCCN", "note": "[DFO, desferrioxamine]", "values": [{"measurement": "efflux/mobilisation of total cellular 59Fe", "setting": "[1]", "result": 11, "unit": "%"}, {"measurement": "59Fe released from cells", "setting": "[2]; 25 μM", "result": "12±1", "unit": "%"}, {"measurement": "inhibition of 59Fe uptake", "setting": "[3]; 0.2-25 μM (FIG. 11D)", "result": "little effect"}, {"measurement": "IC50", "setting": "[4]; Homo sapiens, SK-N-MC, 72 h, Table 3, 0-25 μM, 72 h, MTT, mean ± SD, read-out: IC50 SK-N-MC neuroepithelioma", "result": 5, "unit": "µM"}, {"measurement": "IC50", "setting": "[4]; Homo sapiens, SK-N-MC, 90 h, Table 2, MTT assay, 90 h incubation, Mean ± SD, 4 experiments, read-out: IC50 Values of Chelators", "result": "> 50", "unit": "µM"}, {"measurement": "IC50", "setting": "[5]; Homo sapiens, MRC5", "result": "> 25", "unit": "µM"}, {"measurement": "IC50", "setting": "[6]; Homo sapiens, SK-MEL-28, 72 h, Table 3, mean ± SD", "result": "15 ± 7", "unit": "µM"}, {"measurement": "IC50", "setting": "[7]; Homo sapiens, MCF7, 72 h, Table 3, 72 h, MTT, mean ± SD, read-out: IC50 MCF-7 breast cancer", "result": "14 ± 9", "unit": "µM"}, {"measurement": "IC50", "setting": "[7]; Homo sapiens, MCF7, values given in Example 8 text, read-out: IC50, anti-proliferative activity in MCF-7 cells", "result": 20, "unit": "µM"}, {"measurement": "IC50", "setting": "[8]; Homo sapiens, H69AR", "result": "> 50", "unit": "µM"}, {"measurement": "IC50", "setting": "[9]; Homo sapiens, IMR-32, 0-50 μM", "result": 9.38, "unit": "µM"}, {"measurement": "IC50", "setting": "[10]; Homo sapiens, HepG2, 0-50 μM", "result": 18.7, "unit": "µM"}, {"measurement": "IC50", "setting": "[11]; Homo sapiens, DU-145, 0-50 μM", "result": 15.8, "unit": "µM"}, {"measurement": "IC50", "setting": "[12]; Homo sapiens, NCI-H2452, 0-50 μM", "result": 32.3, "unit": "µM"}, {"measurement": "up-regulation of Ndrg1", "setting": "[13]", "result": "no effect"}]}
{"compound": "CN(C)C(=S)NN=C(c1ccccn1)c1ccccn1", "note": "[Dp44mT, di-2-pyridylketone 4,4-dimethyl-3-thiosemicarbazone]", "values": [{"measurement": "efflux/mobilisation of total cellular 59Fe", "setting": "[1]", "result": 47, "unit": "%"}, {"measurement": "efflux of 59Fe (plateau)", "setting": "[2]; 2 μM", "result": "48±2", "unit": "%"}, {"measurement": "59Fe uptake", "setting": "[3]; 5 μM", "result": "30±1 % of the control"}, {"measurement": "IC50", "setting": "[4]; Table 3, 0-25 μM, 72 h, MTT, mean ± SD, read-out: IC50 SK-N-MC neuroepithelioma", "result": "0.03 ± 0.01", "unit": "µM"}, {"measurement": "IC50", "setting": "[5]", "result": "> 25", "unit": "µM"}, {"measurement": "IC50", "setting": "[6]; Table 3, 72 h, mean ± SD", "result": "0.06 ± 0.03", "unit": "µM"}, {"measurement": "IC50", "setting": "[7]; Table 3, 72 h, MTT, mean ± SD, read-out: IC50 MCF-7 breast cancer", "result": "0.06 ± 0.01", "unit": "µM"}, {"measurement": "IC50", "setting": "[7]; values given in Example 8, read-out: IC50, anti-proliferative activity in MCF-7 cells", "result": 0.1, "unit": "µM"}, {"measurement": "IC50", "setting": "[8]", "result": 0.05, "unit": "µM"}, {"measurement": "IC50", "setting": "[9]; 0-50 μM", "result": 0.01, "unit": "µM"}, {"measurement": "IC50", "setting": "[10]; 0-50 μM", "result": 1.36, "unit": "µM"}, {"measurement": "IC50", "setting": "[11]; 0-50 μM", "result": 0.06, "unit": "µM"}, {"measurement": "IC50", "setting": "[12]; 0-50 μM", "result": 0.01, "unit": "µM"}, {"measurement": "up-regulation of Ndrg1", "setting": "[13]", "result": "markedly increased"}, {"measurement": "Bcl-2 protein level", "setting": "[14]; 2 h", "result": "69 % of the 0 h time point"}, {"measurement": "Bcl-2 protein level", "setting": "[14]; 48 h", "result": "37 % of the 0 h time point"}]}
